Experimental findings from US6310095A, “Inhibitors of protein isoprenyl transferases” (University of Pittsburgh, priority 1998, dated 2001) are described below.

As a reminder, the inhibition is how much of the control response was suppressed.

Counter-ions that a name gives are not always drawn. Bounds are passed on as bounds.

The target of the first assay is T1, protein farnesyltransferase (Rattus norvegicus, UniProt Q02293+Q04631).
T1 construct: Rat brain protein farnesyltransferase activity is measured; from tissue; host or cells: rat brain; purified according to Reiss et al., Cell 62:81-88 (1990), steps one through three
Put plainly: in vitro inhibition of protein farnesyltransferase (scintillation proximity assay, biotin-K Ras B fragment). The format is biochemical. Particulars: at 1 × 10^-5 M. Put shortly: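 Rat brain enzyme, purified through three steps, in a scintillation proximity assay kit with biotin-K Ras B fragment substrate at 0.1 mM final. Value is % inhibition of farnesylation.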
Molecule `CSCC[C@H](NC(=O)c1ccc(CNc2cccc(CCC(=O)O)c2)cc1-c1ccccc1)C(=O)O` [Example 685] showed an inhibition at 10 µM of 55%.

Molecule `CSCC[C@H](NC(=O)c1ccc(CNCC(C)(C)CN(C)C)cc1-c1ccccc1)C(=O)O` [Example 639] registered an inhibition at 10 µM of 44%.

`CSCC[C@H](NC(=O)c1ccc(CNc2cc(C)ns2)cc1-c1ccccc1)C(=O)O` [Example 373] returned an inhibition at 10 µM of 76%.

On to `CSCC[C@H](NC(=O)c1ccc(NC(=O)[C@@H]2C[C@@H](O)CN2)cc1-c1ccccc1)C(=O)O` [Example 952, N-[4-(4-hydroxyprolinylamino)-2-phenylbenzoyl]methionine], for which the inhibition at 10 µM was > 50%.

For `COc1cc2c(cc1OC)C(CNCc1ccc(C(=O)N[C@@H](CCSC)C(=O)O)c(-c3ccccc3)c1)=CC(C1CCCCC1)C2` (stereo partly drawn) [Example 659], the inhibition at 10 µM was determined as 55%.

The molecule `COc1ccc(C(=O)Nc2ccc(C(=O)N[C@@H](CCSC)C(=O)O)c(-c3ccccc3)c2)c(O)c1` [Example 758] displayed an inhibition at 10 µM of 46%.

Staying with this assay, now noted: at 1 × 10^-6 M.
As for `CSCC[C@H](NC(=O)c1ccc(-c2cccc(-c3ccccc3)c2)cc1-c1ccccc1C)C(=O)[O-].[Li+]` [Example 787], the “% inhibition of farnesyltransferase” value came out at 70%.

`Cc1ccccc1-c1cc(CN(C2CC2)C2(Cc3ccccc3)CCCC2)ccc1C(=O)N[C@@H](CCS(C)(=O)=O)C(=O)O` [Example 345]: the “% inhibition of farnesyltransferase” value turned out to be 91%.

With `CSCC[C@H](NC(=O)c1ccc(CCCc2ccc3ccccc3c2)cc1-c1ccccc1C)C(=O)[O-].[Li+]` [Example 470], the “% inhibition of farnesyltransferase” value is given as 95%.

In the case of `CSCC[C@H](NC(=O)c1ccc(/C=C/c2ccccc2)cc1-c1ccccc1C)C(=O)O` [Example 791], the “% inhibition of farnesyltransferase” value came out at 53%.

With `CCCCN(C)N(CCC1CCCCC1)Cc1ccc(C(=O)N[C@@H](CCS(C)(=O)=O)C(=O)O)c(-c2ccccc2C)c1` [Example 300], the “% inhibition of farnesyltransferase” value was found to be 22%.

As for `CSCC[C@H](NC(=O)c1ccc(S(=O)(=O)NCCN2CCCCC2)cc1-c1ccccc1C)C(=O)O` [Example 774], the “% inhibition of farnesyltransferase” value is given as 48%.

Consider `CSCC[C@H](NC(=O)c1ccc(CN(C(C)C)C2(CC3CCCCC3)CCC2)cc1-c1ccccc1C)C(=O)O` [Example 332], for which the “% inhibition of farnesyltransferase” value is reported as 26%.

Consider `Cc1ccccc1-c1cc(CN(C2CC2)C2(CC3CCCCC3)CCCC2)ccc1C(=O)N[C@@H](CCS(C)(=O)=O)C(=O)O` [Example 346], for which the “% inhibition of farnesyltransferase” value is recorded as 98%.

Turning to `CSCC[C@H](NC(=O)c1ccc(COCCCc2ccccc2)cc1-c1ccccc1C)C(=O)[O-].[Li+]` [Example 595], the “% inhibition of farnesyltransferase” value was determined as 97%.

Regarding `CSCC[C@H](NC(=O)c1ccc(COCc2ccccc2C)cc1-c1ccccc1C)C(=O)[O-].[Li+]` [Example 577], the “% inhibition of farnesyltransferase” value is recorded as 94%.

In the case of `CSCC[C@H](NC(=O)c1ccc(CN(C2CC2)C(C)(C)CC2CCCCC2)cc1-c1ccccc1C)C(=O)O` [Example 316], the “% inhibition of farnesyltransferase” value turned out to be 63%.

`CSCC[C@H](NC(=O)c1ccc(COCc2ccccc2)cc1-c1ccccc1C)C(=O)NS(=O)(=O)c1ccc(C)cc1` [Example 582]: the “% inhibition of farnesyltransferase” value was determined as 99%.

For `CSCC[C@H](NC(=O)c1ccc(CN2CCN(c3ccccc3)CC2)cc1-c1ccccc1C)C(=O)O` [Example 867], the “% inhibition of farnesyltransferase” value was found to be 71%.

The same assay, now with this note: at 1 × 10^-6 M; read-out: % inhibition of farnesyltransferase.
For the molecule `CSCC[C@H](NC(=O)c1ccc(NC(=O)C[C@H]2C[C@@H](C(C)=O)C2(C)C)cc1-c1ccccc1)C(=O)O` [Example 751], the inhibition at 1 µM turned out to be 32%.

On to `COc1cccc(CNCc2ccc(C(=O)N[C@@H](CCSC)C(=O)O)c(-c3ccccc3)c2)c1` [Example 652], for which the inhibition at 1 µM amounted to 41%.

As to `CSCC[C@H](NC(=O)c1ccc(CNc2cccc(C(N)=O)c2)cc1-c1ccccc1)C(=O)O` [Example 682], the inhibition at 1 µM came out at 31%.

With `CSCC[C@H](NC(=O)c1ccc(CN[C@H](/C=C\CC(C)C)CC2CCCCC2)cc1-c1ccccc1)C(=O)O` [Example 666], the inhibition at 1 µM is 82%.

For `CSCCC(NC(=O)c1ccc(NC(=O)Cc2cscn2)cc1-c1ccccc1)C(=O)O` (stereo not drawn) [Example 162, [4-(thiazo-4-ylmethylcarbonyl)amino-2-phenylbenzoyl]methionine], the inhibition at 1 µM came to 12%.

With `CCS(=O)(=O)C[C@H](CC1CCCCC1)NCc1ccc(C(=O)N[C@@H](CCSC)C(=O)O)c(-c2ccccc2C)c1` [Example 620, N-[4-(3-cyclohexyl-1-ethylsulfonylpropan-2-ylaminomethyl)-2-(2-methylphenyl)benzoyl]methionine Lithium Salt], the inhibition at 1 µM came out at 98%.

Consider `CSCC[C@H](NC(=O)c1ccc(CN[C@H](CO)CC2CCCCC2)cc1-c1ccccc1C)C(=O)O` [Example 617, N-[4-(3-cyclohexylpropan-1-ol-2-ylaminomethyl)-2-(2-methylphenyl)benzoyl]methionine], for which the inhibition at 1 µM stood at 99%.

Take `CSCC[C@H](NC(=O)c1ccc(CNc2cccc(I)c2)cc1-c1ccccc1)C(=O)O` [Example 677]: the inhibition at 1 µM was found to be 37%.

Consider `CSCC[C@H](NC(=O)c1ccc(CN(CCc2ccccc2)C(C)C)cc1-c1ccccc1C)C(=O)O` [Example 835, N-[14-N-(2-phenylethyl)-N-isoprolpylaminomethyl-2-(2-methylphenyl)benzoyl]methionine lithium salt], for which the inhibition at 1 µM stood at 96%.

`CSCC[C@H](NC(=O)c1ccc(CN(C(=O)OC(C)(C)C)C(CC2CCCCC2)CC2CCCCC2)cc1-c1ccccc1C)C(=O)O` [Example 886, N-[4-N-t-Butyloxycarbonyl-N-(1,3-dicyclohexylpropan-2-yl)aminomethyl-2-(2-methylphenyl)-benzoyl]methionine lithium salt]: the inhibition at 1 µM turned out to be 35%.

As to `CSCC[C@H](NC(=O)c1ccc(CNc2ccccc2Oc2ccccc2)cc1-c1ccccc1)C(=O)O` [Example 645], the inhibition at 1 µM worked out at 37%.

On to `CSCC[C@H](NC(=O)c1ccc(CN(Cc2ccccc2)c2ccccc2Cl)cc1-c1ccccc1C)C(=O)O` [Example 846, N-[4-N-(N-benzyl-N-(2-chlorophenyl)aminomethyl)-2-(2-methylphenyl)benzoyl]methionine lithium salt], for which the inhibition at 1 µM is 85%.

On to `CSCC[C@H](NC(=O)c1ccc(CNCCN2CCCC2)cc1-c1ccccc1)C(=O)O` [Example 641], for which the inhibition at 1 µM was determined as 34%.

The same assay, now with this note: at 1 × 10^-7 M.
With `CCCC(CCC)NOCc1ccc(C(=O)N[C@@H](CCSC)C(=O)O)c(-c2ccccc2C)c1` [Example 929], the “% inhibition of farnesyltransferase” value is reported as 81%.

For the molecule `CSCC[C@H](NC(=O)c1ccc(CCc2ccc(Oc3ccccc3)cc2)cc1-c1ccccc1C)C(=O)[O-].[Li+]` [Example 462], the “% inhibition of farnesyltransferase” value stood at 91%.

In the case of `CSCC[C@H](NC(=O)c1ccc(COCc2cnc(C(C)(C)C)s2)cc1-c1ccccc1C)C(=O)[O-].[Li+]` [Example 895], the “% inhibition of farnesyltransferase” value came to 92%.

For the molecule `CSCC[C@H](NC(=O)c1ccc(COC(Cc2ccccc2)Cc2ccccc2)cc1-c1ccccc1C)C(=O)[O-].[Li+]` [Example 522], the “% inhibition of farnesyltransferase” value was determined as 93%.

As for `CSCC[C@H](NC(=O)c1ccc(COCc2ccc(Cl)cc2)cc1-c1ccccc1C)C(=O)[O-].[Li+]` [Example 933], the “% inhibition of farnesyltransferase” value came out at 91%.

`CSCC[C@H](NC(=O)c1ccc(COCC2CCCCC2)cc1-c1ccccc1C)C(=O)[O-].[Li+]` [Example 585]: the “% inhibition of farnesyltransferase” value is 96%.

Consider `CSCC[C@H](NC(=O)c1ccc(COCCc2ccco2)cc1-c1ccccc1C)C(=O)[O-].[Li+]` [Example 531], for which the “% inhibition of farnesyltransferase” value worked out at 74%.

Still in this assay, the particulars now being: at 1 × 10^-7 M; read-out: % inhibition of farnesyltransferase.
With `CCSC[C@H](CC1CCCCC1)N(Cc1ccc(C(=O)N[C@@H](CCSC)C(=O)O)c(-c2ccccc2C)c1)S(=O)(=O)c1ccccc1` [Example 951], the inhibition at 0.1 µM worked out at 71%.

Regarding `CCCC[C@H](CC1CCCCC1)NCc1ccc(C(=O)N[C@@H](CCSC)C(=O)O)c(-c2ccccc2C)c1` [Example 615, N-[4-(6-cyclohexylhexan-5-ylaminomethyl)-2-(2-methylphenyl)benzoyl]methionine Lithium Salt], the inhibition at 0.1 µM turned out to be 94%.

Still in this assay, the particulars now being: at 1 × 10^-8 M.
As to `CSCC[C@H](NC(=O)c1ccc(CN2CCC[C@H]2COCC2CCCCC2)cc1-c1ccccc1C)C(=O)O` [Example 992], the “% inhibition of farnesyltransferase” value is given as 93%.

In the case of `CSCC[C@H](NC(=O)c1ccc(COCc2cnc(-c3cccc(Cl)c3)s2)cc1-c1ccccc1C)C(=O)[O-].[Li+]` [Example 899], the “% inhibition of farnesyltransferase” value was determined as 88%.

On to `CCSC[C@H](CC1CCCCC1)OCc1ccc(C(=O)N[C@@H](CCSC)C(=O)O)c(-c2ccccc2C)c1` [Example 606], for which the “% inhibition of farnesyltransferase” value was 93%.

Staying with this assay, now noted: at 1 × 10^-8 M; read-out: % inhibition of farnesyltransferase.
As for `CSCC[C@H](NC(=O)c1ccc(CN(Cc2ccc3c(c2)OCO3)c2cnccn2)cc1-c1ccccc1C)C(=O)O` [Example 838, N-[4-N-(1,3-benzodiox-5-yl)-N-pyridizin-2-ylaminomethyl-2-(2-methylphenyl)benzoyl]methionine lithium salt], the inhibition at 0.01 µM is 92%.

For `CSCC[C@H](NC(=O)c1ccc(CN(CCC2CCCCC2)C2CC2)cc1-c1ccccc1C)C(=O)O` [Example 880, N-[4-(N-2-Cyclohexylethyl-N-cyclopropylaminomethyl)-2-(2-methylphenyl)benzoyl]methionine], the inhibition at 0.01 µM was 95%.

For the molecule `CCCCS(=O)(=O)N(CCC1CCCCC1)Cc1ccc(C(=O)N[C@@H](CCSC)C(=O)O)c(-c2ccccc2C)c1` [Example 916], the inhibition at 0.01 µM was 96%.

As for `CSCC[C@H](NC(=O)c1ccc(NC[C@H]2NCC[C@H]2S)cc1-c1ccccc1)C(=O)O` [Example 960, N-[4-((2S,4R)-4-thiolpyrrolidin-2-ylmethylamino)-2-phenylbenzoyl]methionine], the inhibition at 0.01 µM was > 50%.
